Paper PMC7377239, “Cardiovascular Effects of Polychlorinated Biphenyls and Their Major Metabolites” (Environmental Health Perspectives, 2020)
Where two headings read alike, the source gives them in different places.

Tested on: iCell cardiomyocytes (human iPSC-derived cardiomyocytes)
Test: High-content imaging of cytotoxicity and mitochondrial integrity in iPSC-CMs
Type: cell-based
Conditions: Homo sapiens, Cardiomyocyte; for viability at 0.01 µM / activity at 0.01 µM / viability at 0.1 µM / activity at 0.1 µM / viability at 1 µM / activity at 1 µM / viability at 10 µM / activity at 10 µM / viability at 100 µM / activity at 100 µM: 0.00 µM = 100.00; for viability at 0.1 µM / activity at 0.1 µM: 0.10 µM
How it was run: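 Readouts from high-content images were normalized to vehicle controls containing 0.5% vol/vol DMSO. They were fit to a four-parameter logistic model in R. Points of departure were set using a cutoff of one standard deviation across vehicle control means. Where no concentration–response was seen, the top tested concentration of 100μM was assigned as the no observable adverse effect level.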

[1] = 1.5 h, 90min, read-out: cm.cam.90min
[2] = 1.5 h, 90min, read-out: cm.mii.90min
[3] = 1.5 h, 90min, read-out: cm.mito.90min
[4] = 1.5 h, 90min, read-out: cm.tc.90min
[5] = 1.5 h, 90min, read-out: cm.cam.90min POD
[6] = 1.5 h, 90min, read-out: cm.mii.90min POD
[7] = 1.5 h, 90min, read-out: cm.mito.90min POD
[8] = 1.5 h, 90min, read-out: cm.tc.90min POD
[9] = 24 h, 24hrs, read-out: cm.cam.24hrs
[10] = 24 h, 24hrs, read-out: cm.mii.24hrs
[11] = 24 h, 24hrs, read-out: cm.mito.24hrs
[12] = 24 h, 24hrs, read-out: cm.tc.24hrs
[13] = 24 h, read-out: cm.cam.24hrs POD
[14] = 24 h, read-out: cm.mii.24hrs POD
[15] = 24 h, read-out: cm.mito.24hrs POD
[16] = 24 h, read-out: cm.tc.24hrs POD

## Clc1ccc(Cl)c(-c2cc(Cl)ccc2Cl)c1 [PCB52]
[1]
  viability at 0.01 µM: 98.6%
  viability at 0.1 µM: 95.8%
  viability at 1 µM: 101%
  viability at 10 µM: 106%
  viability at 100 µM: 0.44%
[2]
  activity at 0.01 µM: 115%
  activity at 0.1 µM: 118%
  activity at 1 µM: 107%
  activity at 10 µM: 94.2%
  activity at 100 µM: 12.8%
[3]
  activity at 0.01 µM: 98.4%
  activity at 0.1 µM: 95.7%
  activity at 1 µM: 102%
  activity at 10 µM: 106%
  activity at 100 µM: 0.55%
[4]
  viability at 0.01 µM: 98.4%
  viability at 0.1 µM: 95.6%
  viability at 1 µM: 102%
  viability at 10 µM: 106%
  viability at 100 µM: 1.04%
[5]
  minimal effective concentration: 36 µM
[6]
  minimal effective concentration: 10.4 µM
[7]
  minimal effective concentration: 39.2 µM
[8]
  minimal effective concentration: 38.9 µM
[9]
  viability at 0.01 µM: 93.5%
  viability at 0.1 µM: 98.9%
  viability at 1 µM: 95.8%
  viability at 10 µM: 92%
  viability at 100 µM: 3.37%
[10]
  activity at 0.01 µM: 103%
  activity at 0.1 µM: 117%
  activity at 1 µM: 112%
  activity at 10 µM: 103%
  activity at 100 µM: 5.38%
[11]
  activity at 0.01 µM: 91.8%
  activity at 0.1 µM: 99.3%
  activity at 1 µM: 95.8%
  activity at 10 µM: 90.3%
  activity at 100 µM: 0.14%
[12]
  viability at 0.01 µM: 94.3%
  viability at 0.1 µM: 98.8%
  viability at 1 µM: 96.3%
  viability at 10 µM: 92.3%
  viability at 100 µM: 7.71%
[13]
  minimal effective concentration: 7.5 µM
[14]
  minimal effective concentration: 34.4 µM
[15]
  minimal effective concentration: 7.32 µM
[16]
  minimal effective concentration: 8.11 µM

## Oc1ccc(O)c(-c2ccc(Cl)cc2)c1 [2',5'-diOH-PCB 3, 4-Chloro-2′,5′-dihydroxybiphenyl]
1.5 h, cardiomyocytes (cm), cam, 90 min, read-out: POD cm.cam.90min
  minimal effective concentration: 32.4 µM
1.5 h, cardiomyocytes (cm), mii, 90 min, read-out: POD cm.mii.90min
  minimal effective concentration: 7.9 µM
1.5 h, cardiomyocytes (cm), mito, 90 min, read-out: POD cm.mito.90min
  minimal effective concentration: 12.7 µM
1.5 h, cardiomyocytes (cm), tc, 90 min, read-out: POD cm.tc.90min
  minimal effective concentration: 33.4 µM
24 h, cardiomyocytes (cm), cam, 24 hrs, read-out: POD cm.cam.24hrs
  minimal effective concentration: 1.84 µM
24 h, cardiomyocytes (cm), mii, 24 hrs, read-out: POD cm.mii.24hrs
  minimal effective concentration: 2.28 µM
24 h, cardiomyocytes (cm), mito, 24 hrs, read-out: POD cm.mito.24hrs
  minimal effective concentration: 0.97 µM
24 h, cardiomyocytes (cm), tc, 24 hrs, read-out: POD cm.tc.24hrs
  minimal effective concentration: 1.88 µM

## Oc1cc(Cl)c(-c2cc(Cl)ccc2Cl)cc1Cl [4-OH PCB52]
[1]
  viability at 0.01 µM: 89.4%
  viability at 0.1 µM: 103%
  viability at 1 µM: 97.9%
  viability at 10 µM: 95.1%
  viability at 100 µM: 0%
[2]
  activity at 0.01 µM: 103%
  activity at 0.1 µM: 101%
  activity at 1 µM: 97.3%
  activity at 10 µM: 116%
  activity at 100 µM: 7.54%
[3]
  activity at 0.01 µM: 87.5%
  activity at 0.1 µM: 103%
  activity at 1 µM: 97.9%
  activity at 10 µM: 94.7%
  activity at 100 µM: 0.0231%
[4]
  viability at 0.01 µM: 89.4%
  viability at 0.1 µM: 104%
  viability at 1 µM: 98.1%
  viability at 10 µM: 94.9%
  viability at 100 µM: 0.0461%
[5]
  minimal effective concentration: 8.86 µM
[6]
  minimal effective concentration: 45.7 µM
[7]
  minimal effective concentration: 8.61 µM
[8]
  minimal effective concentration: 8.75 µM
[9]
  viability at 0.01 µM: 99.2%
  viability at 0.1 µM: 102%
  viability at 1 µM: 96.1%
  viability at 10 µM: 101%
  viability at 100 µM: 10.2%
[10]
  activity at 0.01 µM: 98.8%
  activity at 0.1 µM: 93.3%
  activity at 1 µM: 102%
  activity at 10 µM: 88.3%
  activity at 100 µM: 193%
[11]
  activity at 0.01 µM: 99.4%
  activity at 0.1 µM: 104%
  activity at 1 µM: 94.1%
  activity at 10 µM: 102%
  activity at 100 µM: 20.3%
[12]
  viability at 0.01 µM: 99.5%
  viability at 0.1 µM: 103%
  viability at 1 µM: 96%
  viability at 10 µM: 101%
  viability at 100 µM: 49.7%
[13]
  minimal effective concentration: 32.7 µM
[14]
  minimal effective concentration: 65.1 µM
[15]
  minimal effective concentration: 36.7 µM
[16]
  minimal effective concentration: 41.4 µM
